# Data published in publication PMC12040169 (PLOS Biology, 2025).
# Assay: in vitro
# Conditions: human, hela cells, % viability
SMILES,"viability at 28.5 h, 10 µM [%]","viability at 28.5 h, 10 µM (bulk resorufin, single well) [%]"
COc1cc(/C=N/NC(=O)C(=O)Nc2ccc(C)c(C)c2)ccc1O [CBK262225],86,
CCOc1ccc2ccccc2c1CNCCSc1nnnn1C [CBK270046C],90.6,
O=C(NC1CCN(c2ncccn2)CC1)c1cccnc1O [CBK297739],99.7,
O=C(O)c1ccc2c(c1)C1C=CCC1C(c1cccc([N+](=O)[O-])c1)N2 (stereo not drawn) [CBK287008],94.7,
CC(C)N1C(=O)C2(CC(=O)N(CCCN3C(=O)c4ccccc4C3=O)C2=O)c2cc(F)ccc21 (stereo not drawn) [CBK075969],99,
Cc1csc([C@H]2Cc3ccsc3[C@@H](C3CCOC3)N2)n1 (stereo partly drawn) [CBK285089],102,
O=C(Nc1ccccc1[N+](=O)[O-])C1Cc2ccccc2CN1S(=O)(=O)c1ccc(F)cc1 (stereo not drawn) [CBK266129],102,
O=C(NCC1CCCO1)C1CCCN(C(=O)c2cc(-c3ccccn3)[nH]n2)C1 (stereo not drawn) [CBK210893],91.7,
O=C(NC1CC1)c1nn(Cc2ccc(S(=O)(=O)N3CCCCC3)cc2)c2ccccc12 [CBK047820],,106
COc1cc([N+](=O)[O-])ccc1NC(=O)C1CC(Cl)=CCC1C(=O)O (stereo not drawn) [CBK264956],88.8,
O=C(Nc1cc2cccnc2nc1Cl)c1ccc(C(F)(F)F)cc1[N+](=O)[O-] [CBK091348],89.9,
CCC(=O)Nc1ccc2oc(-c3cccc(C)c3)nc2c1 [CBK263065],89.6,
Cc1ccc(NC(=O)/C(C#N)=C/c2ccc(-c3ccccc3C(=O)O)o2)cc1Cl [CBK263208],102,
CN1CCN(c2cncc(-c3ccccc3CO)n2)CC1 [CBK065302],91.8,
CCCN1CCN(C(=O)c2ccc(=O)n(C)c2)C(Cc2ccccc2-c2ccccc2)C1=O (stereo not drawn) [CBK285836],108,
CN(C(=O)CN1CCN(c2cc(-c3cc(C(F)(F)F)cc(C(F)(F)F)c3)ncn2)CC1)c1ccccc1 [CBK091125],103,
COc1ccc(-c2noc(CSc3nnc(-c4cccs4)n3-c3ccccc3)n2)cc1 [CBK268390],107,
Cc1nc(NCc2ccc(C(F)(F)F)cc2)nc(N2CCN(C)CC2)n1 [CBK023866],112,
CCC(C(=O)O)N1C(=O)NC2C1N(C)C(=O)N2C (stereo not drawn) [CBK287039],79.9,
O=C(Cc1ccc(Cl)c(Cl)c1)N1CCN(c2ncccn2)CC1 [CBK144497],98,
Cc1cc2c(cc3c(=O)n(CC(=O)N4CCCC4)nc(C)n32)o1 [CBK283631],93.1,
N#C/C(C(=O)Nc1ccccc1)=C(/O)c1nn(-c2ccccc2)c2c1CSc1ccccc1-2 [CBK017685],92.7,

SMILES,"viability at 28.5 h, 10 µM [%]","viability at 28.5 h, 10 µM (bulk resorufin, single well) [%]"
COCC1(C(=O)N(C)Cc2nnc(-c3ccccc3)o2)CCC1 [CBK306987],109,
N=C1NC(=O)/C(=C\c2cccc(C(=O)O)c2)S1 [CBK264832],97.6,
Cc1ccc(S(=O)(=O)Nc2ccc(C3(c4ccc(NS(=O)(=O)c5ccc(C)cc5)cc4)c4ccccc4C(=O)c4ccccc43)cc2)cc1 [CBK261155],111,
Cc1cc(-c2nc3ncccc3o2)ccc1NC(=S)NC(=O)c1cc2ccccc2o1 [CBK268922],83.1,
COc1ncc(-c2cnc3[nH]c(=O)n(C4CC4)c3n2)cn1 [CBK064908],89.1,
Cc1ccccc1Sc1ncccc1C(F)(F)F [CBK115231],104,
O=C1CC2(CCNCC2)Oc2c1ccc1ccccc21 [CBK282714],93,
COc1ccc(C[C@@H]2NC(=O)[C@H]3CN(C(=O)c4cccn4C)CCN3C2=O)cc1 [CBK289616],93.4,
COc1ccc(CCNC(=S)N2CCN(c3ccccn3)CC2)cc1OC [CBK266897],94.5,
Cc1cc(=O)n(CC(=O)N2CCC3(CCCN(C(C)C)C3=O)C2)nc1C (stereo not drawn) [CBK307482],90,
CC(C)NC(=O)N1CCc2sccc2C1c1ccc(Cl)cc1 (stereo not drawn) [CBK018247],108,
CC(C)(C)c1ccc(OCC(=O)Nc2ccc(S(=O)(=O)N3CCc4ccccc43)cc2)cc1 [CBK265352],100,
COc1ccccc1Cn1nc2nnc(-c3ccccc3)c(-c3ccccc3)n2c1=O [CBK286185],88.6,
CC(=O)SCCC(=O)N1C(C)CCCC1C(=O)O (stereo not drawn) [CBK261315],93.1,
COc1ccccc1-c1noc(CCCC(=O)Nc2cccc(C(F)(F)F)c2)n1 [CBK268794],96.3,
Cc1cc2c(=O)n(Cc3ccco3)c(SCc3nc4ccccc4[nH]3)nc2s1 [CBK268202],88.2,
CC(Sc1nc(-c2ccccc2F)n[nH]1)C(=O)N1CCNC1=O (stereo not drawn) [CBK295594],106,
Cc1ccc(-c2nc3ccccc3c(=O)o2)cc1C [CBK288137],97.4,
Cc1cc(C)nc(SCC(=O)Nc2ccc(C(=O)O)cc2)n1 [CBK263223],97.8,
Cc1n[nH]c(=O)c2nc(-c3ccc(=O)[nH]n3)[nH]c12 [CBK008745],102,
O=c1[nH]c2ccccc2n1CCCSc1nnc2c(n1)[nH]c1ccccc12 [CBK264917],118,
COC(=O)CCc1sc(NC(=O)CSCC(=O)O)nc1-c1ccc(OC)cc1 [CBK296116],93.6,

SMILES,"viability at 28.5 h, 10 µM [%]","viability at 28.5 h, 10 µM (bulk resorufin, single well) [%]"
Cc1noc(NS(=O)(=O)c2ccc(NC(=O)CCN3C(=O)c4ccccc4C3=O)cc2)c1C [CBK264091],96.1,
CC(=O)NC[C@@H]1C=C(C)[C@H](CC(=O)Nc2ccccn2)C[C@H]1C(C)C [CBK289209],92.3,
Cc1cc2c(cc1C)C(O)CC1(CCN(CC(=O)NC3CCCCC3)CC1)O2 (stereo not drawn) [CBK286399],94,
CC(C)CN(CC(=O)NC1(c2ccccc2)CCC1)C(=O)N(C)C [CBK062704],96.1,
CSc1nc(NC(=O)c2cc(-c3ccccc3)oc2C)cc(N2CCNCC2)n1 [CBK050364T],89.9,
Oc1nccc(Oc2ccnc(Cl)n2)n1 [CBK000010],98.5,
CC(C)CN1CC(C(=O)NCc2ccccc2-n2ccnc2)CC1=O (stereo not drawn) [CBK282189],104,
COCCNS(=O)(=O)c1cc(OCC(N)=O)c(C)cc1Cl [CBK266461],99.3,
Cc1csc2ncc(C(=O)Nc3ccc(Cl)c(Cl)c3)c(=O)n12 [CBK287459],104,
Cc1ccc(NC(=O)c2cnc3scc(C)n3c2=O)cc1C [CBK287461],108,
COc1ccc(S(=O)(=O)Nc2nc(C)c(C(=O)Nc3ccc(F)cc3)s2)cc1OC [CBK050538],103,
CN(C(=O)c1cc(O)nc2ccccc12)c1nccs1 [CBK297778],105,
CC(=O)Cc1nc2ccccc2nc1O [CBK089805],92.2,
Cc1cccc(N(CC(=O)O)CC(=O)O)c1 [CBK261103],93.2,
C(#Cc1csc(COc2cncc(N3CCNCC3)n2)c1)c1ccccc1 [CBK200006G],92.5,
O=C(Cn1nnc2ccccc2c1=O)N1CCCC(C(F)(F)F)C1 (stereo not drawn) [CBK305900],80.5,
O=S(=O)(NC1CCN(Cc2ccccc2)CC1)c1cccc2nsnc12 [CBK062029],80.8,
CC(NC(=O)c1ncoc1-c1ccccc1F)c1ccccn1 (stereo not drawn) [CBK282402],91.4,
O=C(NNc1ccccc1)c1c(O)c2ccccc2oc1=O [CBK260878],75.1,
Brc1nc2c3c(nc(N4CCOCC4)c2s1)CCCC3 [CBK019604],83.4,
O=C(c1[nH]nc2c1CCCC2)N1CCn2cc(C(F)(F)F)nc2C1 [CBK283915],96.7,
CC(=O)N1CCC2(CC1)OCc1cc(-c3cncc4ccccc34)ccc1O2 [CBK061010],,90.4

SMILES,"viability at 28.5 h, 10 µM [%]","viability at 28.5 h, 10 µM (bulk resorufin, single well) [%]"
CCOc1ncccc1C(=O)NCc1ccc(COCC(F)(F)F)cc1 [CBK304526],97.8,
COc1ccc(CNC(=O)C2CC=CCC2C(=O)O)cc1OC (stereo not drawn) [CBK267695],86.6,
COc1ccc(S(=O)(=O)N(C)CC(=O)Nc2cccc(C(F)(F)F)c2)cc1OC [CBK266242],95.5,
CC(=O)c1ccc(NC(=O)N[C@H]2CO[C@H]3[C@@H]2OC[C@H]3OCC(N)=O)cc1 [CBK289460],117,
Cc1cc(C)c(NC(=O)CSCc2cc(O)[nH]n2)c(Cl)c1 [CBK268302],93.8,
O=C(c1ccccc1)N1C[C@@H]2CCCCN(CC3CC3)[C@@H]2C1 [CBK285498],102,
Cc1n[nH]c(C)c1CCC(=O)N/N=C/c1ccncc1 [CBK262888],112,
CC(C)CCC(=O)Nc1ccc(N2CCN(C(=O)c3ccccc3C(F)(F)F)CC2)nn1 [CBK138629],100,
CC(C)Nc1ccc(C(=O)N2CCC(N3CCOCC3)CC2)cn1 [CBK304353],105,
CCOC(=O)c1c(-c2ccc(C)o2)csc1NC(=O)CN1CCCCC1C (stereo not drawn) [CBK265917],105,
CCOC(=O)C1CCN(S(=O)(=O)c2c(C)noc2C)CC1 [CBK051112],96.9,
O=C(Nc1sccc1C(=O)N1CCOCC1)C(Sc1ccccc1)c1ccccc1 (stereo not drawn) [CBK268165],95,
COc1cc(OC)cc(C(=O)Nc2ncccc2OCCCC#N)c1 [CBK304899],88.3,
Cc1cccc(C(C)C)c1NC(=O)C1Cc2ccccc2CN1S(=O)(=O)c1ccc(F)cc1 (stereo not drawn) [CBK267992],101,
c1ccc2c(c1)nc(N1CCNCC1)n1cnnc21 [CBK270145],100,
CNc1nc(NCCCn2c(C)cccc2=O)cc(C2CCOC2)n1 (stereo not drawn) [CBK306875],117,
S=C(Nc1ccc(Nc2ccccc2)cc1)N1CCN(Cc2ccc3c(c2)OCO3)CC1 [CBK266141],96.7,
OCCN1CCN(c2nc(-c3cc(Cl)cc(Cl)c3)cn3ccnc23)CC1 [CBK066558],94.1,
O=C(Nc1cccnc1N1CCNCC1)c1ccc(-c2cccc(C(F)(F)F)c2)o1 [CBK034119T],90.1,
Cc1n[nH]c(C)c1CNC(=O)C1CCN(Cc2ccc(F)cc2)CC1 [CBK282502],92,
Cc1cccc(-c2ccc(CC3(C(=O)NC(C)C)CCN(C(=O)C(C)C)CC3)cc2)c1 [CBK285756],99.8,
